# Values quoted from earlier work, collected in patent EP4817601A1, “NANOPARTICLES COMPRISING SIROLIMUS AND ALBUMIN, PHARMACEUTICAL COMPOSITION FOR SUBCUTANEOUS ADMINISTRATION, COMPRISING SAME, AND PREPARATION METHOD THEREFOR” (SNBioscience Inc., priority 2023, dated 2025).
# Conditions: poorly soluble drug; background statement
compound,measurement,value
CO[C@H]1C[C@@H]2CC[C@@H](C)[C@@](O)(O2)C(=O)C(=O)N2CCCC[C@H]2C(=O)O[C@H]([C@H](C)C[C@@H]2CC[C@@H](O)[C@H](OC)C2)CC(=O)[C@H](C)/C=C(\C)[C@@H](O)[C@@H](OC)C(=O)[C@H](C)C[C@H](C)/C=C/C=C/C=C/1C [Sirolimus],bioavailability (BA),14%
